Data reported in US20260285888A1, “HETEROCYCLIC COMPOUND AND USE THEREOF” (OTSUKA PHARMACEUTICAL CO., LTD., priority 2023, published 2026).
Read-outs that look alike come from different tables or passages of the source.

Assays:
in vitro = type: cell-based, human; conditions: human, 300 μmol/L, about 24 hours, PMA-differentiated HL-60 cells, LDH, no-treatment 0%, cell lysis buffer 100%, read-out: cytotoxicity (%) Evaluation compound results
In short: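 HL-60 cells differentiated ~72 h with 10 nM PMA, then exposed ~24 h to compound at 300 μmol/L final in RPMI with 2% FBS. LDH release in supernatant gave cytotoxicity % scaled between untreated (0%) and lysis-buffer (100%) groups; triplicate.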

[1] = Study for confirmation of conversion to brexpiprazole in a buffer (stability of the evaluation compounds); type: physicochemical; conditions: in buffer, average of duplicate; for Concentration of brexpiprazole formed: 60-minute reaction sample; for Concentration of evaluation compound decreased: decrease in 60-minute vs 0-minute reaction sample
In short: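 Compounds (final 1 μmol/L, from 100 μmol/L working solutions) incubated in buffer at 37° C. for 0 or 60 min, in duplicate, after 3 min pre-incubation of the reaction solution. Reactions stopped with acetonitrile/isopropanol (4:1) containing internal standards; compound and formed brexpiprazole quantified against 0.01–1 μmol/L calibration samples.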

| Concentration of brexpiprazole formed [1] | Concentration of evaluation compound decreased [1] | Structure (SMILES) | cytotoxicity at 24 h, 300 µM (in vitro; differentiated hl-60 cells) | cytotoxicity at 24 h, 300 µM (in vitro) |
| --- | --- | --- | --- | --- |
| 0 nM | 70 nM | CCOCCOCCOC(=O)OCOP(=O)([O-])OC[N+]1(CCCCOc2ccc3ccc(=O)[nH]c3c2)CCN(c2cccc3sccc23)CC1 [EX 134, (4-(benzo[b]thiophen-4-yl)-1-(4-((2-oxo-1,2-dihydroquinolin-7-yl)oxy)butyl)piperazin-1-ium-1-yl)methyl (3-oxo-2,4,7,10-tetraoxadodecyl) phosphate] | -7% |  |
| 0 nM | 70 nM | CCCCOCCOCCOC(=O)OCOP(=O)([O-])OC[N+]1(CCCCOc2ccc3ccc(=O)[nH]c3c2)CCN(c2cccc3sccc23)CC1 [EX 135, (4-(benzo[b]thiophen-4-yl)-1-(4-((2-oxo-1.2-dihydroquinolin-7-yl)oxy)butyl)piperazin-1-ium-1-yl)methyl (3-oxo-2,4,7,10-tetraoxatetradecyl) phosphate] | -4% |  |
| 0 nM | 0 nM | CCOCCOCCOCCOC(=O)OCOP(=O)([O-])OC[N+]1(CCCCOc2ccc3ccc(=O)[nH]c3c2)CCN(c2cccc3sccc23)CC1 [EX 136, (4-(benzo[b]thiophen-4-yl)-1-(4-((2-oxo-1,2-dihydroquinolin-7-yl)oxy)butyl)piperazin-1-ium-1-yl)methyl (3-oxo-2,4,7,10,13-pentaoxapentadecyl) phosphate] | -9% |  |
| 0 nM | 90 nM | CC(C)OCCOCCOCCOC(=O)OCOP(=O)([O-])OC[N+]1(CCCCOc2ccc3ccc(=O)[nH]c3c2)CCN(c2cccc3sccc23)CC1 [EX 137, (4-(benzo[b]thiophen-4-yl)-1-(4-((2-oxo-1,2-dihydroquinolin-7-yl)oxy)butyl)piperazin-1-ium-1-yl)methyl (14-methyl-3-oxo-2,4,7,10,13-pentaoxapentadecyl) phosphate] | -8% |  |
| 0 nM | 90 nM | CCCCOCCOCCOCCOC(=O)OCOP(=O)([O-])OC[N+]1(CCCCOc2ccc3ccc(=O)[nH]c3c2)CCN(c2cccc3sccc23)CC1 [EX 138, (4-(benzo[b]thiophen-4-yl)-1-(4-((2-oxo-1,2-dihydroquinolin-7-yl)oxy)butyl)piperazin-1-ium-1-yl)methyl (3-oxo-2,4,7,10,13-pentaoxaheptadecyl) phosphate] | -7% |  |
| 0 nM | 120 nM | COCCCOC(=O)OCOP(=O)([O-])OC[N+]1(CCCCOc2ccc3ccc(=O)[nH]c3c2)CCN(c2cccc3sccc23)CC1 [EX 139, (4-(benzo[b]thiophen-4-yl)-1-(4-((2-oxo-1,2-dihydroquinolin-7-yl)oxy)butyl)piperazin-1-ium-1-yl)methyl ((((3-methoxypropoxy)carbonyl)oxy)methyl) phosphate] | -4% |  |
| 0 nM | -20 nM | O=C(OCCCOC1CCCCO1)OCOP(=O)([O-])OC[N+]1(CCCCOc2ccc3ccc(=O)[nH]c3c2)CCN(c2cccc3sccc23)CC1 (stereo not drawn) [EX 140, (4-(benzo[b]thiophen-4-yl)-1-(4-((2-oxo-1,2-dihydroquinolin-7-yl)oxy)butyl)piperazin-1-ium-1-yl)methyl ((((3-((tetrahydro-2H-pyran-2-yl)oxy)propoxy)carbonyl)oxy)methyl) phosphate] | 9% |  |
| 0 nM | 20 nM | O=C(OCOP(=O)([O-])OC[N+]1(CCCCOc2ccc3ccc(=O)[nH]c3c2)CCN(c2cccc3sccc23)CC1)OC1CCOCC1 [EX 141, (4-(benzo[b]thiophen-4-yl)-1-(4-((2-oxo-1,2-dihydroquinolin-7-yl)oxy)butyl)piperazin-1-ium-1-yl)methyl (((((tetrahydro-2H-pyran-4-yl)oxy)carbonyl)oxy)methyl) phosphate] | 19% |  |
| 0 nM | -70 nM | O=C(OCOP(=O)([O-])OC[N+]1(CCCCOc2ccc3ccc(=O)[nH]c3c2)CCN(c2cccc3sccc23)CC1)OCC1CCOCC1 [EX 142, (4-(benzo[b]thiophen-4-yl)-1-(4-((2-oxo-1,2-dihydroquinolin-7-yl)oxy)butyl)piperazin-1-ium-1-yl)methyl (((((tetrahydro-2H-pyran-4-yl)methoxy)carbonyl)oxy)methyl) phosphate] | 8% |  |
| 0 nM | 50 nM | CCOC(=O)CCOC(=O)OCOP(=O)([O-])OC[N+]1(CCCCOc2ccc3ccc(=O)[nH]c3c2)CCN(c2cccc3sccc23)CC1 [EX 143, (4-(benzo[b]thiophen-4-yl)-1-(4-((2-oxo-1,2-dihydroquinolin-7-yl)oxy)butyl)piperazin-1-ium-1-yl)methyl ((((3-ethoxy-3-oxopropoxy)carbonyl)oxy)methyl) phosphate] | -5% |  |
| 0 nM | 120 nM | CCOC(=O)CCCCCOC(=O)OCOP(=O)([O-])OC[N+]1(CCCCOc2ccc3ccc(=O)[nH]c3c2)CCN(c2cccc3sccc23)CC1 [EX 144] | 18% |  |
| 0 nM | 30 nM | O=C(O)CCCCCOC(=O)OCOP(=O)([O-])OC[N+]1(CCCCOc2ccc3ccc(=O)[nH]c3c2)CCN(c2cccc3sccc23)CC1 [EX 145, (4-(benzo[b]thiophen-4-yl)-1-(4-((2-oxo-1,2-dihydroquinolin-7-yl)oxy)butyl)piperazin-1-ium-1-yl)methyl (((((5-carboxypentyl)oxy)carbonyl)oxy)methyl) phosphate] | -9% |  |
| 0 nM | 110 nM | O=C(OCCCN1CCOCC1)OCOP(=O)([O-])OC[N+]1(CCCCOc2ccc3ccc(=O)[nH]c3c2)CCN(c2cccc3sccc23)CC1 [EX 146, (4-(Benzo[b]thiophen-4-yl)-1-(4-((2-oxo-1,2-dihydroquinolin-7-yl)oxy)butyl)piperazin-1-ium-1-yl)methyl ((((3-morpholinopropoxy)carbonyl)oxy)methyl) phosphate] | 1% |  |
| 0 nM | 70 nM | CCOC(=O)C1CCN(CCOP(=O)([O-])OC[N+]2(CCCCOc3ccc4ccc(=O)[nH]c4c3)CCN(c3cccc4sccc34)CC2)CC1 [EX 147, (4-(benzo[b]thiophen-4-yl)-1-(4-((2-oxo-1,2-dihydroquinolin-7-yl)oxy)butyl)piperazin-1-ium-1-yl)methyl (2-(4-(ethoxycarbonyl)piperidin-1-yl)ethyl) phosphate] | -6% |  |
| 0 nM | 110 nM | CC(C)(C)C(=O)OP(=O)([O-])OC[N+]1(CCCCOc2ccc3ccc(=O)[nH]c3c2)CCN(c2cccc3sccc23)CC1 [EX 150, (4-(benzothiophen-4-yl)-1-(4-((2-oxo-1H-quinolin-7-yl)oxy)butyl)piperazin-1-ium-1-yl)methyl 2,2-dimethylpropanoyl phosphate] | 10% |  |
| 0 nM | -10 nM | CCNP(=O)([O-])OC[N+]1(CCCCOc2ccc3ccc(=O)[nH]c3c2)CCN(c2cccc3sccc23)CC1 [EX 151, (4-(benzo[b]thiophen-4-yl)-1-(4-((2-oxo-1,2-dihydroquinolin-7-yl)oxy)butyl)piperazin-1-ium-1-yl)methyl ethylphosphoramidate] | -6% |  |
| 0 nM | 10 nM | COCCNP(=O)([O-])OC[N+]1(CCCCOc2ccc3ccc(=O)[nH]c3c2)CCN(c2cccc3sccc23)CC1 [EX 152, (4-(benzo[b]thiophen-4-yl)-1-(4-((2-oxo-1,2-dihydroquinolin-7-yl)oxy)butyl)piperazin-1-ium-1-yl)methyl (2-methoxyethyl)phosphoramidate] | -10% |  |
| 0 nM | 20 nM | CCOC(=O)CNP(=O)([O-])OC[N+]1(CCCCOc2ccc3ccc(=O)[nH]c3c2)CCN(c2cccc3sccc23)CC1 [EX 154, (4-(benzo[b]thiophen-4-yl)-1-(4-((2-oxo-1,2-dihydroquinolin-7-yl)oxy)butyl)piperazin-1-ium-1-yl)methyl (2-ethoxy-2-oxoethyl)phosphoramidate] | 4% |  |

| Structure (SMILES) | Concentration of brexpiprazole formed [1] | Concentration of evaluation compound decreased [1] | cytotoxicity at 24 h, 300 µM (in vitro; differentiated hl-60 cells) | cytotoxicity at 24 h, 300 µM (in vitro) |
| --- | --- | --- | --- | --- |
| COCCN(CCOC)P(=O)([O-])OC[N+]1(CCCCOc2ccc3ccc(=O)[nH]c3c2)CCN(c2cccc3sccc23)CC1 [EX 153, (4-(benzo[b]thiophen-4-yl)-1-(4-((2-oxo-1.2-dihydroquinolin-7-yl)oxy)butyl)piperazin-1-ium-1-yl)methyl bis(2-methoxyethyl)phosphoramidate] | 0 nM | -10 nM |  | -7% |
